Assay results as given in patent EP0163537A1, “1-Propanone derivatives and pharmaceutical compositions containing same” (priority 1984, dated 1985).
Where a name gives a salt, the structure may show the parent alone. Read-outs that look alike come from different tables or passages of the source.

Experiments:
Type in all cases: in vivo
Male mice of ddY strain [1] = assay: Test 2 Anti-tremorine activity (inhibition of tremorine-induced tremor); settings: for responders at 50 mg/kg: Mus musculus, po, read-out: Inhibition of tremor (%)
Procedure: Male mice of ddY strain, weighing 28 to 32 g, were used in groups of eight or ten. The test compounds were dissolved in distilled water and administered orally in a dose of 50 mg/kg. After 30 minutes, tremorine dihydrochloride was subcutaneously administered in a dose of 20 mg/kg. Then, the occurrence of tremor was observed after the lapse of 30 and 60 minutes.

Male mice of ddY strain [2] = assay: Test 1 Anti-nicotine activity (inhibition of nicotine-induced convulsive death); settings: 200 mg/kg po, nicotine 2 mg/kg iv after 1 h, observed 1 h; for responders at 200 mg/kg: Mus musculus
Procedure: Male mice of ddY strain, weighing 28 to 33 g, were used in groups of eight or twelve. The test compounds were dissolved in distilled water and administered orally in a dose of 200 mg/kg. After an hour, nicotine was intravenously administered in a dose of 2 mg/kg.

Male mice of ddY strain [3] = assay: Test 3 Muscle relaxant activity (traction test, method of Courvoisier et al.); settings: 15 minutes after administration, groups of ten
Procedure: Male mice of ddY strain, weighing 30 to 37 g, were used in groups of ten. The test compounds were dissolved in physiological saline and administered intraperitoneally in a dose of 50 or 75 mg/kg. […] This method involves a traction test in which the animal is hung by its forelimbs on a horizontal metal rod (2 mm in diameter) placed 20 cm above the floor and examined as to whether it can put its hindlimb on the rod or not.
Specifically, 15 minutes after administration of a test compound, the mouse was hung on the rod by its forelimbs. […] It had been confirmed in preliminary tests that, under normal conditions, all the mice could put their hindlimb on the rod within 5 seconds.

[4] = Test 5 Acute toxicity (LD50, method of Behrens and Kärbar); settings: mouse, in vivo, po, mice, observed for 7 days
Procedure: Male mice of ddY strain, weighing 25 to 30 g, were used in groups of five. The test compounds were dissolved in distilled water and administered orally in various doses. […] Then, the LDso was calculated according to the method of Behrens and Kärbar.

[5] = 0.5 h, Table-3b, 50 mg/kg po, After 30 min., 10 animals used
[6] = 1 h, Table-3b, 50 mg/kg po, After 60 min., 10 animals used
[7] = 0.5 h, Table-3a, 50 mg/kg po, After 30 min. from tremorine 20 mg/kg sc, 8 animals used
[8] = 1 h, Table-3a, 50 mg/kg po, After 60 min. from tremorine 20 mg/kg sc, 8 animals used
[9] = po, 1 h, Table-2a, 8 animals used
[10] = Table-3d, 50 mg/kg po, After 30 min., 10 animals used
[11] = Table-3d, 50 mg/kg po, After 60 min., 10 animals used
[12] = Table-3a, 50 mg/kg po, After 30 min. from tremorine 20 mg/kg sc, 8 animals used
[13] = Table-3a, 50 mg/kg po, After 60 min. from tremorine 20 mg/kg sc, 8 animals used
[14] = 0.5 h, Table-3d, 50 mg/kg po, After 30 min., 10 animals used
[15] = 1 h, Table-3d, 50 mg/kg po, After 60 min., 10 animals used
[16] = po, 1 h, Table-2c, 12 animals used

CCCC(CN1CCCC1)C(=O)c1ccc2c(c1)CCO2.Cl (centres unmarked) [Example 98, 1-(2,3-Dihydro-5-benzofuranyl)-2-n-propyl-3-(1-pyrrolidinyl)-1-propanone hydrochloride]
responders at 50 mg/kg (Male mice of ddY strain [1]; 0.5 h): 100%
responders at 50 mg/kg (Male mice of ddY strain [1]; 1 h): 90%
responders at 200 mg/kg (Male mice of ddY strain [2]; Table-2c, 12 animals used): 0%
Number of surviving animals (Male mice of ddY strain [2]; Table-2c, 12 animals used): 0

Cl.O=C(c1ccc(C2CC2)cc1)C(CN1CCCCC1)C1CCCC1 (centres unmarked) [Example 37, 2-Cyclopentyl-1-(4-cyclopropylphenyl)-3-piperidino-1-propanone hydrochloride]
responders at 50 mg/kg (Male mice of ddY strain [1]; [5]): 80%
responders at 50 mg/kg (Male mice of ddY strain [1]; [6]): 80%
Number of animals exhibiting no tremor (Male mice of ddY strain [1]; Table-3b, 50 mg/kg po, After 30 min., 10 animals used): 8
Number of animals exhibiting no tremor (Male mice of ddY strain [1]; Table-3b, 50 mg/kg po, After 60 min., 10 animals used): 8

CC(CN1CCCCCC1)C(=O)c1ccc(C2CC2)cc1.Cl (centres unmarked) [Example 9, 1-(4-Cyclopropylphenyl)-2-methyl-3-(hexahydro-1H-azepin-1-yl)-1-propanone hydrochloride]
responders at 50 mg/kg (Male mice of ddY strain [1]; [7]): 100%
responders at 50 mg/kg (Male mice of ddY strain [1]; [8]): 87.5%
responders at 200 mg/kg (Male mice of ddY strain [2]; [9]): 75%
Number of surviving animals (Male mice of ddY strain [2]; Table-2a, 8 animals used): 6
Number of animals exhibiting muscle relaxation (Male mice of ddY strain [3]; Table-4a, 50 mg/kg ip): 7
LD50 at 168 h ([4]; Table-5a): 655 mg/kg

1-(2,3-Dihydro-5-benzofuranyl)-2-ethyl-3-piperidino-1-propanone hydrochloride [Example 89]
Inhibition of tremor (%) (Male mice of ddY strain [1]; [10]): 100%
Number of animals exhibiting no tremor (Male mice of ddY strain [1]; [10]): 10
Inhibition of tremor (%) (Male mice of ddY strain [1]; [11]): 100%
Number of animals exhibiting no tremor (Male mice of ddY strain [1]; [11]): 10
Inhibition of death (%) (Male mice of ddY strain [2]; Table-2c, 12 animals used): 66.7%
Number of surviving animals (Male mice of ddY strain [2]; Table-2c, 12 animals used): 8
Muscle relaxation rate (%) (Male mice of ddY strain [3]; Table-4d, 75 mg/kg ip): 50%
Number of animals exhibiting muscle relaxation (Male mice of ddY strain [3]; Table-4d, 75 mg/kg ip): 5

CCC(CN1CCCCC1)C(=O)c1ccc(C2CC2)cc1.Cl (centres unmarked) [Example 11, 1-(4-Cyclopropylphenyl)-2-ethyl-3-piperidino-1-propanone hydrochloride]
responders at 50 mg/kg (Male mice of ddY strain [1]; [7]): 100%
responders at 50 mg/kg (Male mice of ddY strain [1]; [8]): 100%
Number of animals exhibiting no tremor (Male mice of ddY strain [1]; [12]): 8
Number of animals exhibiting no tremor (Male mice of ddY strain [1]; [13]): 8
responders at 200 mg/kg (Male mice of ddY strain [2]; [9]): 37.5%
Number of surviving animals (Male mice of ddY strain [2]; Table-2a, 8 animals used): 3

CC(CN1CCCC1)C(=O)c1ccc(C2CC2)cc1.Cl (centres unmarked) [Example 8, 1-(4-Cyclopropylphenyl)-2-methyl-3-(1-pyrrolidinyl)-1-propanone hydrochloride]
responders at 50 mg/kg (Male mice of ddY strain [1]; [7]): 100%
responders at 50 mg/kg (Male mice of ddY strain [1]; [8]): 87.5%
responders at 200 mg/kg (Male mice of ddY strain [2]; [9]): 62.5%
Number of surviving animals (Male mice of ddY strain [2]; Table-2a, 8 animals used): 5
Number of animals exhibiting muscle relaxation (Male mice of ddY strain [3]; Table-4a, 50 mg/kg ip): 7
LD50 at 168 h ([4]; Table-5a): 505 mg/kg

CCC(CN1CCCC1)C(=O)c1ccc2c(c1)OCO2 (centres unmarked) [Example 56, 2-Ethyl-1-(3,4-methylenedioxyphenyl)-3-(1-pyrrolidi-nyl)-1-propanone hydrochloride]
responders at 200 mg/kg (Male mice of ddY strain [2]; Table-2b, 12 animals used): 41.7%
Number of surviving animals (Male mice of ddY strain [2]; Table-2b, 12 animals used): 5

CCC(CN1CCCCCC1)C(=O)c1ccc2c(c1)CCO2.Cl (centres unmarked) [Example 96, 1-(2,3-Dihydro-5-benzofuranyl)-2-ethyl-3-(hexa-hydro-1H-azepin-1-yl)-1-propanone hydrochloride]
responders at 50 mg/kg (Male mice of ddY strain [1]; [14]): 100%
responders at 50 mg/kg (Male mice of ddY strain [1]; [15]): 100%
Number of animals exhibiting no tremor (Male mice of ddY strain [1]; [10]): 10
Number of animals exhibiting no tremor (Male mice of ddY strain [1]; [11]): 10
responders at 200 mg/kg (Male mice of ddY strain [2]; [16]): 41.7%
Number of surviving animals (Male mice of ddY strain [2]; Table-2c, 12 animals used): 5

CCC(CN1CCCC1)C(=O)c1ccc(C2CC2)cc1.Cl (centres unmarked) [Example 10, 1-(4-Cyclopropylphenyl)-2-ethyl-3-(1-pyrrolidinyl)-1-propanone hydrochloride]
responders at 50 mg/kg (Male mice of ddY strain [1]; [7]): 100%
responders at 50 mg/kg (Male mice of ddY strain [1]; [8]): 100%
Number of animals exhibiting no tremor (Male mice of ddY strain [1]; [12]): 8
Number of animals exhibiting no tremor (Male mice of ddY strain [1]; [13]): 8
responders at 200 mg/kg (Male mice of ddY strain [2]; [9]): 0%
Number of surviving animals (Male mice of ddY strain [2]; Table-2a, 8 animals used): 0

CCc1ccc(C(=O)C(C)CN2CCCCC2)cc1 (centres unmarked) [Eperisone HCl, Eperisone, reference compound]
responders at 50 mg/kg (Male mice of ddY strain [1]; [7]): 87.5%
responders at 50 mg/kg (Male mice of ddY strain [1]; [5]): 80%
responders at 50 mg/kg (Male mice of ddY strain [1]; [14]): 80%
responders at 50 mg/kg (Male mice of ddY strain [1]; [8]): 0%
responders at 50 mg/kg (Male mice of ddY strain [1]; [6]): 10%
responders at 50 mg/kg (Male mice of ddY strain [1]; [15]): 20%
responders at 200 mg/kg (Male mice of ddY strain [2]; [9]): 50%
responders at 200 mg/kg (Male mice of ddY strain [2]; po, 1 h, Table-2b, 12 animals used): 50%
responders at 200 mg/kg (Male mice of ddY strain [2]; [16]): 50%
Number of animals exhibiting muscle relaxation (Male mice of ddY strain [3]; Table-4a, 50 mg/kg ip): 2
Number of animals exhibiting muscle relaxation (Male mice of ddY strain [3]; Table-4d, 75 mg/kg ip): 2
LD50 at 168 h ([4]; Table-5a): 595 mg/kg
LD50 at 168 h ([4]; Table-5b): 475 mg/kg
LD50 at 168 h ([4]; Table-5c): 565 mg/kg
